The record followed here is ChEMBL document CHEMBL2311309, “Venezuelines A-G, new phenoxazine-based alkaloids and aminophenols from Streptomyces venezuelae and the regulation of gene target Nur77” (Bioorg Med Chem Lett, 2013).

Holding throughout (format): functional, cell-based
Assay [1] is described as follows: Cytotoxicity against human […] cells by MTT method. (In general: Formazan colour is commonly taken as a measure of viable cells.)
Assay [2] in a line: Cytotoxicity against human NIH-H460 cells by MTT method.
Assay [3] has as its system A2780. The experiment in a line: Cytotoxicity against human A2780 cells by MTT method.
The subject of assay [4] is BGC-823. The experiment in a line: Cytotoxicity against human BGC823 cells by MTT method.
The test system of assay [5] is A549. Kind of assay: Cytotoxicity against human A549 cells by MTT method.
Assay [6] has as its system HCT-8. Kind of assay: Cytotoxicity against human HCT8 cells by MTT method.
In assay [7] the test system is NIH-H460. The experiment in a line: Induction of nur77 gene expression in human NIH-H460 cells after 6 to 12 hrs by RT-PCR analysis.
The subject of assay [8] is NIH-H460. The experiment in a line: Induction of nur77 gene expression in human NIH-H460 cells at 1 to 10 uM by RT-PCR analysis. To be noted: TDE = time-dependent effect.
Assay [9] relates to NIH-H460. The experiment in a line: Induction of nur77 gene expression in human NIH-H460 cells at 1 uM within 12 hrs by RT-PCR analysis.
The subject of assay [10] is NIH-H460. The experiment in a line: Induction of nur77 gene expression in human NIH-H460 cells at 10 uM within 6 hrs by RT-PCR analysis.
Assay [11] concerns NIH-H460. Kind of assay: Induction of nur77 gene expression in human NIH-H460 cells after 3 hrs by RT-PCR analysis.
For assay [12], the system named is NIH-H460. The experiment in a line: Induction of nur77 gene expression in human NIH-H460 cells at 1 to 10 uM after 3 hrs by RT-PCR analysis.

Each structure is given as a SMILES string. Active and inactive are the calls of the source. No cut-off for these calls is given here.

For orientation: IC50 means the concentration needed to halve the response being measured. In the case of `CC(=O)Nc1cc2nc3cc(C(=O)O)ccc3oc-2cc1=O` [CARBOXYEXFOLIAZONE], the IC50 in assay [1], in assay [2], in assay [3], in [4], in [5] and in assay [6] was > 30 µg/mL throughout.

As for `O=C(CO)Nc1cc2nc3cc(CO)ccc3oc-2cc1=O` [CHANDRANANIMYCIN D], the IC50 in assay [1], in [2], in [3], in assay [4], in [5] and in assay [6] was > 30 µg/mL each time.

`CC(=O)Nc1cc2nc3cc(CO)ccc3oc-2cc1=O` [EXFOLIAZONE]: the Activity entry is “Dose-dependent effect” in assay [7] and “tde” in [8]. For the same compound, the outcome in assay [9] and in assay [10] was Active. The IC50 is > 10 µM in [1]; 13.6 µM in assay [2]; 2.52 µM in assay [3]; 3.4 µM in assay [4]; 9.16 µM in assay [5]; 4.89 µM in [6].

Consider `O=c1[nH]cc(F)c(=O)[nH]1` [FLUOROURACIL], for which the IC50 worked out at 3.85 µM in assay [1]; 7.12 µM in assay [2]; 5.4 µM in assay [3]; 3.84 µM in [4]; 1.54 µM in [5]; 5.38 µM in [6].

Consider `CC(=O)Nc1cc(Cc2cc3oc4cc(=O)c(NC(C)=O)cc-4nc3cc2CO)ccc1O` [VNEZUELINE A], for which the half-inhibitory concentration (IC50) in assay [1], in assay [2], in assay [3], in assay [4], in assay [5] and in [6] was > 30 µg/mL each time.

`O=C1NC2=Nc3cc(CO)ccc3O[C@]23[C@H](O)CC[C@H]13` [VNEZUELINE B]: the Activity result in assay [11] is “Dose-dependent effect”. In addition, the IC50 is > 10 µM in assay [1]; 9.67 µM in assay [2]; 6.57 µM in assay [3]; 6.78 µM in assay [4]; 7.52 µM in [5]; 5.74 µM in assay [6].

Consider `CC(=O)Nc1cc2c(cc1OC(=O)CO)Oc1ccc(CO)cc1N2` [VNEZUELINE C], for which the IC50 in assay [1], in assay [2], in [3], in [4], in assay [5] and in assay [6] was > 50 µg/mL throughout.

`O=C(CO)Nc1cc2c(cc1OC(=O)CO)Oc1ccc(CO)cc1N2` [VNEZUELINE D]: in [12], the outcome was inactive. The IC50 in [1], in assay [2], in assay [3], in assay [4], in [5] and in assay [6] was > 50 µg/mL each time.

Consider `CCCC(=O)OCc1ccc2oc3cc(=O)c(NC(C)=O)cc-3nc2c1` [VNEZUELINE E], for which the IC50 in [1], in assay [2], in assay [3], in assay [4], in assay [5] and in assay [6] was > 30 µg/mL throughout.

In the case of `CC(=O)Nc1cc(COCc2ccc(O)c(NC(C)=O)c2)ccc1O` [VNEZUELINE F], the IC50 in assay [1], in [2], in assay [3], in [4], in assay [5] and in assay [6] was > 50 µg/mL each time.

For `COCc1ccc(O)c(NC(C)=O)c1` [VNEZUELINE G], the IC50 in [1], in assay [2], in assay [3], in [4], in [5] and in assay [6] was > 50 µg/mL throughout.
